# Test results: US8476414B2, “Substrates and internal standards for mass spectrometry detection” (PerkinElmer Health Sciences, Inc., priority 2006, dated 2013)
# Key:
# [1] = Non-enzymatic hydrolysis of substrate in blank sample not containing blood, processed as the dried blood spots; assay type: physicochemical; conditions: blank without blood, same assay solution and processing
# Procedure: For each sample, a disk of 3 mm diameter is punched from the areas of dried blood on a filter paper into a micro-centrifuge tube or a well of a 96-well microtiter plate. The blood disk is then incubated directly with an assay solution containing a substrate directed to the Fabry disease. The assay solution is prepared by mixing a 10 mM solution of substrate (4-(Hexadecanoyl-DL-carnitineamido)phenyl-α-D-galactopyranoside), a 1 mM solution of the internal standard for the enzymatic product (4-(Hexadecanoyl-DL-carnitine[C16-d3]amido)phenol), a 1 M solution of Acetylgalactosamine, and a 0.4 M solution of sodium acetate pH 4.6 buffer in a 8:1:3:38 ratio. The assay mixture containing the blood disk is incubated for 15 to 24 hours at 37° Celsius with orbital shaking (150 rpm) in a thermostatic air shaker. […] For the mass spectrometry analysis, the electrospray source is operated in positive mode, and the ions are detected in the parent ion of 176 scan mode. The amount of enzymatic product is calculated from the ion abundance ratio of the product to the internal standard minus that of a blank.
# The […] chain for this particular example was chosen to contain 10 carbons and thus decanoyl-carnitine was used in the synthesis of the substrate. […] The final sample solutions were analyzed on a Waters Quattro Micro ESI-triple quadrupole tandem mass spectrometer using a parent ion of 176 scan. […]
# acid α-glucosidase (GAA) = experiment: Dried blood spot enzyme assay with Pompe substrate, tandem mass spectrometry detection of the enzymatic product; assay type: biochemical, human; conditions: pH 3.98
# Procedure: An enzymatic reaction using a substrate directed to Pompe disease and the mass spectrometry analysis thereafter is carried out using the method specified in Example 1 with the following exceptions that sodium citrate was used as buffer. The assay solution for Example 2 was prepared by mixing a buffer solution (0.2 M sodium citrate/sodium phosphate, pH 3.98), a solution of 8 mM Acarbose, a solution of 10 mM substrate (4-Decanoyl-DL-carnitineamido)phenyl-α-D-glucopyranoside), and a solution of 1.0 mM internal standard (4-Decanoyl-DL-carnitine[C10-d3]amido)phenol) in a 93:1:4:2 ratio. The rest of the procedure is as indicated in Example 1.
# In addition a blank filter paper sample not containing blood was processed following the same procedure as the dried blood spots. The same assay solution containing buffers, substrates, inhibitors and internal standards was used for all three samples. Therefore, all samples received the same concentration of reagents. The final sample solutions were analyzed on a Waters Quattro Micro ESI-triple quadrupole tandem mass spectrometer using a parent ion of 176 scan. The predominant peaks shown in the spectra are those corresponding to the intact substrate, internal standard and corresponding enzymatic product. […]
# [2] = molecular target: T1, acid α-galactosidase A (GLA) (Homo sapiens, UniProt P06280); experiment: Dried blood spot enzyme assay with Fabry substrate, tandem mass spectrometry detection of the enzymatic product; assay type: biochemical; conditions: with dried blood sample, 15 to 24 hours at 37° Celsius, sodium acetate pH 4.6
# T1 construct: from tissue
# T1 sequence (P06280 32-429): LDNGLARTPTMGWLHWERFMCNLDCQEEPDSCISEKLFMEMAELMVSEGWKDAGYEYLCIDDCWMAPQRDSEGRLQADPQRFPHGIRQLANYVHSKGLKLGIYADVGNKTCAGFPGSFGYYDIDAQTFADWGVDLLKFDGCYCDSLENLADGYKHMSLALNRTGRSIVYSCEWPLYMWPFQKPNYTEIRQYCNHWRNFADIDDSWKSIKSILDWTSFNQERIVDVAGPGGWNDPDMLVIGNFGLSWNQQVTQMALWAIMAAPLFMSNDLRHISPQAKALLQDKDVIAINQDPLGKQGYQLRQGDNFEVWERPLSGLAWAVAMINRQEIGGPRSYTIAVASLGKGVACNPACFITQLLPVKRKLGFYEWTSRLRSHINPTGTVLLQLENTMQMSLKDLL
# Procedure: For each sample, a disk of 3 mm diameter is punched from the areas of dried blood on a filter paper into a micro-centrifuge tube or a well of a 96-well microtiter plate. The blood disk is then incubated directly with an assay solution containing a substrate directed to the Fabry disease. The assay solution is prepared by mixing a 10 mM solution of substrate (4-(Hexadecanoyl-DL-carnitineamido)phenyl-α-D-galactopyranoside), a 1 mM solution of the internal standard for the enzymatic product (4-(Hexadecanoyl-DL-carnitine[C16-d3]amido)phenol), a 1 M solution of Acetylgalactosamine, and a 0.4 M solution of sodium acetate pH 4.6 buffer in a 8:1:3:38 ratio. The assay mixture containing the blood disk is incubated for 15 to 24 hours at 37° Celsius with orbital shaking (150 rpm) in a thermostatic air shaker. After the incubation period, an aliquot of pure methanol (without the use of chloroform) is added to each tube or well to terminate the enzymatic reaction. Before going into the mass spectrometer, an aliquot of the incubated aliquot is diluted in pure methanol. For the mass spectrometry analysis, the electrospray source is operated in positive mode, and the ions are detected in the parent ion of 176 scan mode. The amount of enzymatic product is calculated from the ion abundance ratio of the product to the internal standard minus that of a blank.
SMILES,non-enzymatic substrate hydrolysis (product found in blank) [1],conversion of substrate to product (abundance of product relative to internal standard) (acid α-glucosidase (GAA); dried blood spot of confirmed Pompe positive newborn),conversion of substrate to product (abundance of product relative to internal standard) (acid α-glucosidase (GAA); dried blood spot of healthy newborn),enzymatic product of the substrate detected by MS/MS [2]
"CCCCCCCCCC(=O)OC(CC(=O)Nc1ccc(O[C@H]2O[C@H](CO)[C@@H](O)[C@H](O)[C@H]2O)cc1)C[N+](C)(C)C (mixture of isomers) [substrate directed to Pompe disease, 4-(Decanoyl-DL-carnitineamido)phenyl-α-D-glucopyranoside]",negligible,no noticeable substrate to product conversion,highly noticeable,
"CCCCCCCCCCCCCCCC(=O)OC(CC(=O)Nc1ccc(O[C@H]2O[C@H](CO)[C@H](O)[C@H](O)[C@H]2O)cc1)C[N+](C)(C)C (mixture of isomers) [substrate directed to Fabry disease, 4-(Hexadecanoyl-DL-carnitineamido)phenyl-α-D-galactopyranoside]",minimal amount,,,significant amount
